# Test results taken from ChEMBL document CHEMBL1139020, “Aryl O- and S-galactosides and lactosides as specific inhibitors of human galectins-1 and -3: role of electrostatic potential at O-3” (Bioorg Med Chem Lett, 2006).
# Key:
# [1] = target: Galectin-3 (Homo sapiens) (UniProt P17931); assay: Inhibition of Galectin3
# [2] = target: Galectin-1 (Homo sapiens) (UniProt P09382); assay: Inhibition of Galectin1
# Galectin-1 (Homo sapiens), sequence (P09382 whole entry): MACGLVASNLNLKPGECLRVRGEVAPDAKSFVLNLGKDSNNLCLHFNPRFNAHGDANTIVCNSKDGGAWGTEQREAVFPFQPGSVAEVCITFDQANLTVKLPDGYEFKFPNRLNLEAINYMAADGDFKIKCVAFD
# Galectin-3 (Homo sapiens), sequence (P17931 whole entry): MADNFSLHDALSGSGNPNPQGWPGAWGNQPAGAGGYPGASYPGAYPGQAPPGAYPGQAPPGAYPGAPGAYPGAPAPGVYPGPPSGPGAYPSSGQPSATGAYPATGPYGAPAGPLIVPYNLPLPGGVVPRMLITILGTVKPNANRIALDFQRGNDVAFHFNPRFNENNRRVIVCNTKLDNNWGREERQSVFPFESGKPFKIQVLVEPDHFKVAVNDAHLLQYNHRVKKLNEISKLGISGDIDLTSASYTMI
Compound,Activity [1] [mM],Activity [2] [mM]
COc1ccc(S(=O)(=O)[C@@H]2O[C@H](CO)[C@H](O)[C@H](O)[C@H]2O)cc1,> 5,> 5
CC(=O)OC[C@H]1O[C@@H](Oc2ccccc2[N+](=O)[O-])[C@H](OC(C)=O)[C@@H](OC(C)=O)[C@H]1O,> 5,> 5
CC(=O)OC[C@H]1O[C@@H](Oc2ccccc2[N+](=O)[O-])[C@H](OC(C)=O)[C@@H](OC(C)=O)[C@@H]1O[C@@H]1O[C@H](CO)[C@H](O)[C@H](O)[C@H]1O,0.625,0.08
CC(=O)OC[C@H]1O[C@@H](Oc2ccc([N+](=O)[O-])cc2)[C@H](OC(C)=O)[C@@H](OC(C)=O)[C@@H]1O[C@@H]1O[C@H](CO)[C@H](O)[C@H](O)[C@H]1O,0.625,0.313
O=S(=O)(c1ccc2ccccc2c1)[C@@H]1O[C@H](CO)[C@@H](O[C@@H]2O[C@H](CO)[C@H](O)[C@H](O)[C@H]2O)[C@H](O)[C@H]1O,0.313,0.04
"LACTOSE, ANHYDROUS",0.8,0.8
CC(=O)OC[C@H]1O[C@@H](Sc2ccc(Br)cc2)[C@H](OC(C)=O)[C@@H](OC(C)=O)[C@@H]1O[C@@H]1O[C@H](CO)[C@H](O)[C@H](O)[C@H]1O,0.313,0.313
O=S(=O)(c1ccc(Br)cc1)[C@@H]1O[C@H](CO)[C@@H](O[C@@H]2O[C@H](CO)[C@H](O)[C@H](O)[C@H]2O)[C@H](O)[C@H]1O,0.313,0.313
COc1ccc(S[C@@H]2O[C@H](COC(C)=O)[C@H](O)[C@H](OC(C)=O)[C@H]2OC(C)=O)cc1,2.5,> 5
COc1ccc(S[C@@H]2O[C@H](COC(C)=O)[C@@H](O[C@@H]3O[C@H](CO)[C@H](O)[C@H](O)[C@H]3O)[C@H](OC(C)=O)[C@H]2OC(C)=O)cc1,0.313,0.313

# Next, values leading:
Activity [1] [mM],Activity [2] [mM],Compound
50,50,O=C[C@H](O)[C@@H](O)[C@@H](O)[C@H](O)CO
0.313,0.313,CC(=O)OC[C@H]1O[C@@H](Sc2ccc([N+](=O)[O-])cc2)[C@H](OC(C)=O)[C@@H](OC(C)=O)[C@@H]1O[C@@H]1O[C@H](CO)[C@H](O)[C@H](O)[C@H]1O
5,5,CC(=O)OC[C@H]1O[C@@H](Sc2ccc3ccccc3c2)[C@H](OC(C)=O)[C@@H](OC(C)=O)[C@H]1O
> 5,2.5,CC(=O)OC[C@H]1O[C@@H](Sc2ccc([N+](=O)[O-])cc2)[C@H](OC(C)=O)[C@@H](OC(C)=O)[C@H]1O
10,10,CC(=O)OC[C@H]1O[C@@H](Oc2ccc([N+](=O)[O-])cc2)[C@H](OC(C)=O)[C@@H](OC(C)=O)[C@H]1O
0.313,0.313,CC(=O)OC[C@H]1O[C@@H](Sc2ccc3ccccc3c2)[C@H](OC(C)=O)[C@@H](OC(C)=O)[C@@H]1O[C@@H]1O[C@H](CO)[C@H](O)[C@H](O)[C@H]1O
